Laboratory results taken from publication PMC12251482, “Floridoside Phosphotriester Derivatives: Synthesis and Inhibition of Human Neutrophils’ Oxidative Burst” (Molecules, 2025).

What was measured:
human neutrophils = assay: Neutrophils' apoptosis versus necrosis, Annexin V/PI flow cytometry; format: cell-based; settings: for Cytotoxicity in neutrophils: 45 min; for Induction of late apoptosis in neutrophils: Figure S154
Protocol: The effect of the compounds under study on neutrophil viability was evaluated using flow cytometry. This assessment involved staining with Annexin V (AV) and propidium iodide (PI) from the BD Pharmingen™ FITC Annexin V Apoptosis Detection Kit, following the manufacturer’s protocol. […] Afterwards, the content of each well was transferred to a conical microtube and centrifuged at 400× g, at 20 °C, for 5 min. The neutrophils’ pellets were resuspended in PBS and centrifuged again under the previous conditions. The supernatant was removed, and the solution of Annexin V and PI from the kit was added, resuspending the pellet. The neutrophils were incubated in the dark at room temperature for 15 min and then diluted (dilution factor = 6) with the diluted binding buffer. […] In the flow cytometer, the fluorescence signal of at least 10,000 neutrophils per sample was collected in logarithmic mode and followed in channels 1 and 3. A polygon gate, corresponding to the neutrophil’s population, was drawn according to the light-scattering properties of neutrophils in a forward versus scatter plot. Thus, debris and other blood cells were unaccounted for in the samples. The green fluorescence corresponding to Annexin V was monitored in channel 1 and plotted as a histogram of FL1 staining, whereas the fluorescence corresponding to PI was monitored in channel 3 and plotted in the same histogram as FL3 staining. Neutrophils’ cell death was expressed as a relative percentage of viable, apoptotic, late apoptotic, and necrotic cells compared to a negative control (untreated cells).
The eﬀect of the compounds under study on neutrophil viability was evaluated using ﬂow cytometry.
This assessment involved staining with Annexin V (AV) and propidium iodide (PI) from the BD Pharmingen™ FITC Annexin V Apoptosis Detection Kit, following the manufacturer's protocol. Neutrophils (1 x10^6 cells/mL) were incubated in a 24-well plate in the dark at 37 °C for 45 minutes with the positive control (Triton X-100, […]
Afterwards, the content of each well was transferred to a conical microtube and centrifuged at 400g, at 20 °C, for 5 minutes. The neutrophils’ pellets were resuspended in PBS and centrifuged again under the previous conditions. The supernatant was removed, and the solution of Annexin V and PI from the kit was added, resuspending the pellet. The neutrophils were incubated in the dark at room temperature for 15 minutes and then diluted (dilution factor = 6) with the diluted binding buﬀer. The measurements were performed in a n Accuri C6 ﬂow cytometer (BD, Becton, Dickinson and Company, Franklin Lakes, NJ, USA), and the results were treated with BD Accuri™ C6 software. In the ﬂow cytometer, the ﬂuorescence signal of at least 10,000 neutrophils per sample was collected in logarithmic mode and followed in channels 1 and 3. A polygon gate, corresponding to the neutrophil’s population, was drawn according to the light-scattering properties of neutrophils in a forward vs scatter plot. Thus, debris and other blood cells were unaccounted for in the samples.
The green ﬂuorescence corresponding to Annexin V was monitored in channel 1 and plotted as a histogram of FL1 staining, whereas the ﬂuorescence corresponding to PI was monitored in channel 3 and plotted in the same histogram as FL3 staining. Neutrophils’ cell death was expressed as a relative percentage of viable, apoptotic, late apoptotic, and necrotic cells compared to a negative control (untreated cells). […]

[1] = system: PMA-stimulated human neutrophils; assay: PMA-induced neutrophils' oxidative burst, oxidation of luminol (chemiluminescence); format: cell-based
Protocol: Luminol is easily oxidized by reactive species produced during neutrophils’ oxidative burst, resulting in a chemiluminescent signal. The effect of the compounds under study on the modulation of neutrophil oxidative burst was determined after stimulation with PMA, a known neutrophil activator, because its effect is closely analogous to that obtained during the phagocytic process. Following a previously reported method, in a 96-well plate, neutrophils were incubated in the dark at 37 °C for 5 min with luminol (500 μM) and the tested compounds (10–100 μM) or DMSO (final concentration 4%). Quercetin, a flavonoid known for its anti-inflammatory activity (0.3–5.0 μM), and the inhibitor of NADPH oxidase, DPI (0.01–10 μM), were used as controls. After incubation, PMA (160 nM) was added, and the chemiluminescence was measured in a microplate reader (Synergy HT, BIO-TEK Instruments, Inc., Winooski, VT, USA). Kinetic readings were initiated immediately after cell stimulation. Measurements were taken at the peak of the curve. […] Effects are expressed as the inhibition percentage of luminol oxidation. The results obtained represent at least three independent experiments. […]
3.4 Evaluation of neutrophils' oxidative burst
3.4.1 Oxidation of luminol
Luminol is easily oxidized by reactive species produced during neutrophils’ oxidative burst, resulting in a chemiluminescent signal. The eﬀect of the compounds under study on the modulation of neutrophil oxidative burst was determined after stimulation with PMA, a known neutrophil activator, because its eﬀect is closely analogous to that obtained during the phagocytic process. Following a previously reported method, in a 96-well plate, neutrophils were incubated in the dark at 37 °C for 5 minutes with luminol (500 µM) and the tested compounds (10 - 100 µM) or DMSO (ﬁnal concentration 4%). Quercetin, a ﬂavonoid known for its anti-inﬂammatory activity (0.3 - 5.0 µM), and the inhibitor of NADPH oxidase, DPI (0.01 - 10 µM), were used as positive and negative controls, respectively. After incubation, PMA (160 nM) was added, and the chemiluminescence was measured in a microplate reader (Synergy HT, BIO-TEK Instruments, Inc., Winooski, VT, USA). Kinetic readings were initiated immediately after cell stimulation. Measurements were taken at the […]
peak of the curve. […] Eﬀects are expressed as the inhibition percentage of luminol oxidation. The obtained results represent at least three independent experiments.

[2] = tested concentrations, up to 100 μM

| Molecule | Cytotoxicity in neutrophils (human neutrophils; 50 μM) | Cytotoxicity in neutrophils (human neutrophils; [2]) | IC50 ([1]; PMA 160 nM, mean ± SEM) | Cytotoxicity in neutrophils (human neutrophils; 25 μM) | Induction of late apoptosis in neutrophils (human neutrophils; 50 μM) | Luminol: highest obtained % of inhibition ([1]; at 25 µM, PMA 160 nM, mean ± SEM) | inhibition at 100 µM ([1]; Homo sapiens, Neutrophil, at 100 µM, PMA 160 nM, mean ± SEM, read-out: Luminol: highest obtained % of inhibition) | Effect on oxidative burst measured by luminol (in words) ([1]; PMA-induced) | inhibition at 25 µM ([1]; Homo sapiens, Neutrophil, at 25 µM, PMA 160 nM, mean ± SEM, read-out: Luminol: highest obtained % of inhibition) |
| --- | --- | --- | --- | --- | --- | --- | --- | --- | --- |
| 3-Hydroxy-2-(galactopyranosyl)propyl dodecanoate [Compound 1e] | no cytotoxicity | non-cytotoxic | 83 ± 7 µM |  |  |  |  |  |  |
| 3-Hydroxy-2-galactopyranosylpropyl dioctyl phosphate [Compound 1b] | cytotoxic effects |  |  | did not exhibit significant cytotoxicity | induce late apoptosis | 36 ± 9% ^25µM |  |  |  |
| OCC(CO)OC1OC(CO)C(O)C(O)C1O [Compound 1a, 2-O-D-(galactopyranosyl)glycerol] |  | no cytotoxic activity |  |  |  |  | 34 ± 7% | no relevant activity |  |
| CCCCCCCCCCCC(=O)OCC(CO)OC1OC(COP(=O)(OCCN)OCCN)C(O)C(O)C1O (centres unmarked) [Compound 1h, 2-(6-(bis(2-Aminoethoxy))phosphoryl)galactopyranosyl-3-hydroxypropyl dodecanoate] | cytotoxic effects |  |  | did not exhibit significant cytotoxicity | induce late apoptosis |  |  |  | 27 ± 15% |
